In patent US20100113301A1, “METHOD FOR THE IDENTIFICATION AND/OR THE QUANTIFICATION OF A TARGET COMPOUND OBTAINED FROM A BIOLOGICAL SAMPLE UPON CHIPS” (Eppendorf Array Technologies, priority 1999, published 2010):
Several values for one entry are separate records, joined by “and”; a condition that tells them apart may be missing. Identical values can stand only once.

Test system: Rat Liver Gene Expression
Assay: Rat liver gene expression on Rat HepatoChips microarrays, colorimetric silver detection
Conditions: liver mRNA of treated rat, 100 mg/kg per day orally for 4 days, raw spot intensity mean, 100 mg/kg/day
Protocol: Female Sprague-Dawley CD rats (aged 10-12 weeks) were dosed orally with 100 mg/kg per day of either Sodium Phenobarbitone (PB) or pregnenalone 16-carbonitrile (PCN) (Sigma-Aldrich Co. Poole, Dorset, UK) for 4 days. Control animals received corresponding quantities (5 ml/kg body weight) of the 0.56% (w/v) gum tragacanth vehicle. Animals were killed by decapitation and the livers immediately removed for further mRNA extraction.
The arrays also include positive and negative controls for the hybridization process, an internal standard control and 8 housekeeping genes.
The Rat HepatoChips is composed of single strand DNA probes attached to the glass by a covalent link. The length of the DNA nucleotide sequences has been optimized. They are the same for all genes and are located near the 3′ end of the transcript. All probes have been designed to be gene specific and have been prepared using rat cDNAs.
Labeled cDNA was prepared using 2 μg mRNA isolated using the FastTrack 2.0 mRNA isolation Kit (Invitrogen). A synthetic poly (A)+tailed mRNA was spiked to the purified mRNA as internal standard to assist in quantification and estimation of experimental variation introduced during labeling and reading. mRNA was added to 2 μl of oligo dT(12-18) primer (0.5 μg/ul) (Gibco BRL), RNase free water was used to bring the volume to 9 μl, and the mixture was denatured at 70° C. for 10 min and then chilled on ice for 5 min. The reverse transcription was performed by adding the following components to the annealed probe/template on ice: 4 μl of First Strand Buffer (250 mM Tris-HCl pH 8.3, 375 mM KCl, 15 mM MgCl2) (Gibco BRL), 2 ul of DTT 0.1 M (Gibco BRL), 40 units of RNasin ribonuclease inhibitor (Promega), 500 μM dATP (Roche), 500 μM dTTP (Roche), 500 μM dGTP (Roche), 80 μM dCTP (Roche), 80 μM biotin-1′-dCTP (NEN). The reaction mixture was mixed gently by flicking the tube and incubated for 5 min at room temperature. 300 units of SuperScript II RT (RNase H—) (Gibco BRL) was added to the reaction mixture and the reverse transcription was allowed to proceed for 90 min at 42° C. Then an additional 300 units of SuperScript II RT was added and incubation was continued at 42° C. for another 90 min. The reaction was ended by heat inactivation at 70° C. for 15 min. To remove RNA complementary to the cDNA, a treatment with RNase H was performed at 37° C. for 20 min following by a heat denaturation at 95° C. for 3 minutes and cooled on ice before use. No further RT product purification was necessary.
The hybridization was performed in a hybridization chamber (Biozym, Landgraaf, The Netherlands) containing the hybridization buffer ‘Hepatobuffer’ and a positive hybridization control (a biotinylated amplicons, at a concentration of 25 nM). Hybridization was carried out overnight at 60° C. The arrays were then washed four times for 2 min with washing buffer at room temperature.
The presence of biotinylated hybrids on the microarray was detected using a antibody anti-biotin conjugate coupled colloidal gold. The arrays were then incubated with a 1:100 dilution of conjugate solution in a blocking buffer (100 mM maleic buffer pH 7.5, 150 mM NaCl and 0.1% milk powder) for […] at room temperature. The array were then washed five times for 2 min at room temperature, rinsed briefly with deionized water then dried. Then array is incubated at room temperature for 5 min in the Silver Blue Solution (AAT, Namur, Belgium), rinsed in water, dried 5′ at 37° C. and read with the scanner described herein.
The scanner used had the following scanning parameters:
Bit depth: 16 bits grayscale (65536 grey levels)
no additional correction of the image (i.e. standard values for contrast, brightness, . . . )
Scanning software: Silverfast from LaserSoft
Quantification Software: Imagene 4.2 from Biodiscovery

Question: Which results are given for `CCC1(c2ccccc2)C(=O)NC(=O)NC1=O` [phenobarbital, Sodium Phenobarbitone]?
Answer: Test Signal, ACO (gene ACO): 51686 16-bits grayscale and 51619 16-bits grayscale; Test Signal, Albumin (gene Albumin): 63921 16-bits grayscale and 63641 16-bits grayscale; Test Signal, ApoJ (gene ApoJ): 52452 16-bits grayscale and 55866 16-bits grayscale; Test Signal, B-actin (gene B-actin): 52992 16-bits grayscale and 55039 16-bits grayscale; Test Signal, Bax (gene Bax): 24767 16-bits grayscale and 27814 16-bits grayscale; Test Signal, Bcl-2 (gene Bcl-2): 21220 16-bits grayscale and 21509 16-bits grayscale; Test Signal, C-jun (gene C-jun): 22382 16-bits grayscale and 23523 16-bits grayscale; Test Signal, C-myc (gene C-myc): 27229 16-bits grayscale and 28315 16-bits grayscale; Test Signal, C/EBP (gene C/EBP): 31394 16-bits grayscale and 31754 16-bits grayscale; Test Signal, Cox-2 (gene Cox-2): 20187 16-bits grayscale and 20484 16-bits grayscale; Test Signal, Cyclin D1 (gene Cyclin D1): 25036 16-bits grayscale and 25587 16-bits grayscale; Test Signal, Cyp 1a1 (gene Cyp 1a1): 20728 16-bits grayscale and 20972 16-bits grayscale; Test Signal, Cyp 1b1 (gene Cyp 1b1): 22231 16-bits grayscale and 21071 16-bits grayscale; Test Signal, Cyp 2b (gene Cyp 2b): 62971 16-bits grayscale and 62867 16-bits grayscale; Test Signal, Cyp 3a (gene Cyp 3a): 63098 16-bits grayscale and 63114 16-bits grayscale; Test Signal, Cyp 4a1 (gene Cyp 4a1): 35089 16-bits grayscale and 35673 16-bits grayscale; Test Signal, Cyt oxidase 1 (gene Cyt oxidase 1): 63947 16-bits grayscale and 62432 16-bits grayscale; Test Signal, Elk (gene Elk): 20632 16-bits grayscale and 20630 16-bits grayscale; Test Signal, Enoyl CoA (gene Enoyl CoA): 60758 16-bits grayscale and 60738 16-bits grayscale; Test Signal, Erk-1 (gene Erk-1): 22998 16-bits grayscale and 23360 16-bits grayscale; Test Signal, Ferritin (gene Ferritin): 60237 16-bits grayscale and 59913 16-bits grayscale; Test Signal, Fibronectin (gene Fibronectin): 47542 16-bits grayscale and 50240 16-bits grayscale; Test Signal, GADD45 (gene GADD45): 22359 16-bits grayscale and 22287 16-bits grayscale; Test Signal, GADD153 (gene GADD153): 23334 16-bits grayscale and 23216 16-bits grayscale; Test Signal, GAPDH (gene GAPDH): 58466 16-bits grayscale and 60437 16-bits grayscale; Test Signal, GSH reductase (gene GSH reductase): 24281 16-bits grayscale and 23937 16-bits grayscale; Test Signal, Glutathione Theta 5 (gene Glutathione Theta 5): 30062 16-bits grayscale and 32113 16-bits grayscale; Test Signal, Glutatione Ya (gene Glutatione Ya): 63398 16-bits grayscale and 63872 16-bits grayscale; Test Signal, HGF (gene HGF): 21195 16-bits grayscale and 20996 16-bits grayscale; Test Signal, HGPT (gene HGPT): 26564 16-bits grayscale and 27506 16-bits grayscale; Test Signal, HMG (gene HMG): 34978 16-bits grayscale and 36070 16-bits grayscale; Test Signal, Histone Dacetyl (gene Histone Dacetyl): 21846 16-bits grayscale and 21766 16-bits grayscale; Test Signal, Hox2 (gene Hox2): 30000 16-bits grayscale and 29975 16-bits grayscale; Test Signal, Hsp 70 (gene Hsp 70): 23738 16-bits grayscale and 22628 16-bits grayscale; Test Signal, II6 (gene II6): 20776 16-bits grayscale and 20646 16-bits grayscale; Test Signal, IKB (gene IKB): 21781 16-bits grayscale and 21227 16-bits grayscale; Test Signal, JNK (gene JNK): 20743 16-bits grayscale and 20935 16-bits grayscale; Test Signal, MDR1 (gene MDR1): 27172 16-bits grayscale and 26841 16-bits grayscale; Test Signal, Macroglobulin (gene Macroglobulin): 32619 16-bits grayscale and 33165 16-bits grayscale; Test Signal, Mgmt (gene Mgmt): 23373 16-bits grayscale and 23981 16-bits grayscale; Test Signal, MnSOD (gene MnSOD): 26695 16-bits grayscale and 26251 16-bits grayscale; Test Signal, Myr (gene Myr): 22905 16-bits grayscale and 22579 16-bits grayscale; Test Signal, NFKB (gene NFKB): 21439 16-bits grayscale and 21343 16-bits grayscale; Test Signal, ODC (gene ODC): 23381 16-bits grayscale and 23303 16-bits grayscale; Test Signal, P38 (gene P38): 26227 16-bits grayscale and 28841 16-bits grayscale; Test Signal, P53 (gene P53): 25848 16-bits grayscale and 25221 16-bits grayscale; Test Signal, PCNA (gene PCNA): 23374 16-bits grayscale and 23609 16-bits grayscale; Test Signal, PPAR (gene PPAR): 20767 16-bits grayscale and 20704 16-bits grayscale; Test Signal, Phospho A2 (gene Phospho A2): 21966 16-bits grayscale and 21421 16-bits grayscale; Test Signal, S29 (gene S29): 50843 16-bits grayscale and 53202 16-bits grayscale; Test Signal, Smp30 (gene Smp30): 32696 16-bits grayscale and 31894 16-bits grayscale; Test Signal, TGFbRII (gene TGFbRII): 22149 16-bits grayscale and 23021 16-bits grayscale; Test Signal, TNF (gene TNF): 21082 16-bits grayscale and 20767 16-bits grayscale; Test Signal, Telomerase (gene Telomerase): 23256 16-bits grayscale and 22745 16-bits grayscale; Test Signal, Transferrin (gene Transferrin): 61525 16-bits grayscale and 61527 16-bits grayscale; Test Signal, Tubulin (gene Tubulin): 36262 16-bits grayscale and 36054 16-bits grayscale; Test Signal, UDPGT1a6 (gene UDPGT1a6): 22769 16-bits grayscale and 22766 16-bits grayscale; Test Signal, UDPGT1a (gene UDPGT1a): 52205 16-bits grayscale and 50981 16-bits grayscale; Test Signal, Ubiquitin (gene Ubiquitin): 59171 16-bits grayscale and 59613 16-bits grayscale
